Earlier results in patent publication US20130101864A1, “Multifunctional Long-Acting Rust-Proof Film and Manufacturing Method Thereof” (Zhejiang Great Southeast Packaging Co., Ltd., priority 2010, published 2013).

How the values were obtained:
[1] = no harmful physiological toxicity on human body

solubility in organic solvents (alcohol, benzene, toluene, chloroform and dimethylformamide): soluble | solubility in water (water): slightly soluble
Structure (SMILES): c1ccc2[nH]nnc2c1 [Benzotriazole]
toxicity [1]: non-toxic
